# Literature values in US6355633B1, “Aryl sulfonic acids and derivatives as FSH antagonists” (American Home Products Corporation, priority 1999, dated 2002).
# Target: T1, FSH receptor (Rattus norvegicus, UniProt P20395)
# T1 construct: endogenous in cells; host or cells: primary ovarian granulosa cells of DES-treated immature Sprague-Dawley rats
# T1 sequence (P20395 18-692): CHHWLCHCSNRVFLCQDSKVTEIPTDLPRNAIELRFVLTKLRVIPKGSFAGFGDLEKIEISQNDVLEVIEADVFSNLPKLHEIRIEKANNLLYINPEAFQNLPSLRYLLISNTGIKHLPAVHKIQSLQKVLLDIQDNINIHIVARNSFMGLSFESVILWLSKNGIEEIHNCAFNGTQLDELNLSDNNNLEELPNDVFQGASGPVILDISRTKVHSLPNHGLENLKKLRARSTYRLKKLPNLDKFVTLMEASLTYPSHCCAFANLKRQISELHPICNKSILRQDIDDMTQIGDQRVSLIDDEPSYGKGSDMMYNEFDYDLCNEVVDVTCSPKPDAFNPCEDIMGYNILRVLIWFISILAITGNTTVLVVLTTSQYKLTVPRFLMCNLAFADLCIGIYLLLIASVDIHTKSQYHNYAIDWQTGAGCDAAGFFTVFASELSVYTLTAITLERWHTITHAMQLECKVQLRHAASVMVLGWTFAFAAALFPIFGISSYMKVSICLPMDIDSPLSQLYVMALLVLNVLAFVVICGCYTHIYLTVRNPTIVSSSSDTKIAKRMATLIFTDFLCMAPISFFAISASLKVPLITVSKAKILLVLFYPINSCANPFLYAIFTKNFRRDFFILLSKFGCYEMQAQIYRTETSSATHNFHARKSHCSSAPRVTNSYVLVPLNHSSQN
# Settings: literature report; cited from earlier work
smiles,measurement,value
"Cc1ccc(C(=O)Nc2ccc(S(=O)(=O)O)c3cc(S(=O)(=O)O)cc(S(=O)(=O)O)c23)cc1NC(=O)c1cccc(NC(=O)Nc2cccc(C(=O)Nc3cc(C(=O)Nc4ccc(S(=O)(=O)O)c5cc(S(=O)(=O)O)cc(S(=O)(=O)O)c45)ccc3C)c2)c1 [suramin, Suramin Sodium]",inhibition of FSH binding to its receptor,inhibit FSH binding to its receptor
